Measurements from US20160038519A1, “ADMINISTRATION OF KARENITECIN FOR THE TREATMENT OF ADVANCED OVARIAN CANCER, INCLUDING CHEMOTHERAPY-RESISTANT AND/OR THE MUCINOUS ADENOCARCINOMA SUB-TYPES” (BioNumerik Pharmaceuticals, Inc., priority 2014, published 2016).
Like-named read-outs stand apart in the source and are kept apart here.

How the values were obtained:
[1] = tested on: MDR-expressing sublines; details: comparison studies; cited from earlier work
[2] = tested on: mucinous cell lines (JHOM2B, OMC3, and COV644); assay: SRB assay, joint statements for the mucinous cell lines incl. effect of BNP7787 on BNP1350-induced cytotoxicity; format: cell-based, human
Description: (§1) In vitro studies were conducted in human mucinous ovarian cancer cell lines including JHOM2B, OMC3, and COV644. In one series of experiments, the dose response curves for BNP1350 (also known as Karenitecin), SN-38 (Irinotecan), and Topotecan were obtained and IC50 values were determined. In a second series of experiments, the effect of BNP7787 (2,2′-dithio-bis-ethane sulfonate; Tavocept) on BNP1350-induced cytotoxicity at selected BNP1350 concentrations was examined.
The JHOM2B and OMC3 cell lines were purchased from Riken Cell Bank (Japan). The COV644 cell line was purchased from SigmaAldrich. Cells were maintained as monolayered cultures in T-75 flasks and then seeded to microtiter plate wells for experiments. Population doubling-times for these three cell lines were long (i.e., exceeding 40 hours, and for some of the cell lines approaching 96 hours); therefore, the Applicants conducted initial pilot experiments and determined optimal seeding density to obtain A570 values in untreated controls that would fall within the linear range of the SRB assay after seven (7) total days of cell growth. […]
The cells were manipulated in a Microzone laminar flow hood traditionally used for maintaining aseptic environments around automated instrumentation such as microplate robots, and the like. […] Cells were counted using a ViCell counter (Beckman-Coulter). An automated plate washer/stacker (ELx405/BioStak from BioTek Instruments) and a microplate reader (SpectraMax Plus from Molecular Devices) were used for conducting the SRB assay and determining A570 values for wells in the plates and the percentage of control values. Prior to SRB assays, cell viability was monitored by evaluation of microtiter plate wells. […]
The sulforhodamine B (SRB) cytotoxicity assay was used to assess cell survival. […] Plates were agitated (gently) for 5 minutes and the absorbance values of the SRB dye-protein adduct at 570 nanometers (A570) were determined using an automated microtiter plate reader (SpectraMax Plus, Molecular Devices). […]

[3] = tested on: human breast, ovarian and lymphoma cancer cell lines; assay: Paclitaxel induced apoptosis (PARP cleavage, Bcl-2 phosphorylation, DNA laddering); format: cell-based
From the text: (§2) Tavocept mediates the non-enzymatic xenobiotic modification of sulfur-containing amino acid residues (e.g., cysteine) on proteins. As an engineered, non-naturally occurring agent (i.e., xenobiotic), Tavocept is autocatalytic and requires no protein cofactor to cause the xenobiotic modification of cysteine, but appears to be specific for cysteine residues located within a particular structural context (i.e., not all cysteines in a protein are so modified). Tavocept-mediated, xenobiotic modification represents a novel mechanism of action for a cancer treating agent and can be compared, to a degree, with post-translational modifications of cysteine residues in proteins (see, Table 3, below). By way of non-limiting example, some of the important elements of Tavocept's effectiveness as a compound in the treatment of cancer are its selectivity for normal cells versus cancer cells and its absence of interference with the anti-cancer activity of cancer treating agents.

[4] = tested on: human cancer cell lines; assay: Paclitaxel- and platinum-induced cytotoxicity; format: cell-based
From the text: as §2

[5] = human, in vivo; cited from earlier work
[6] = tested on: COV644 Cell Line; assay: SRB cytotoxicity assay, COV644; format: cell-based, human; details: 2, 5, and 6 hour drug exposures
Description: as §1
(§3) The JHOM2B and OMC3 cell lines were purchased from Riken Cell Bank (Japan). The COV644 cell line was purchased from SigmaAldrich. Cells were maintained as monolayered cultures in T-75 flasks and then seeded to microtiter plate wells for experiments. Population doubling-times for these three cell lines were long (i.e., exceeding 40 hours, and for some of the cell lines approaching 96 hours); therefore, the Applicants conducted initial pilot experiments and determined optimal seeding density to obtain A570 values in untreated controls that would fall within the linear range of the SRB assay after seven (7) total days of cell growth. JHOM2B cells were cultured in DMEM:F12 (1:1)+0.1 mM non-essential amino acids (NEAA)+10% FBS and were seeded at 6,000 cells per well. OMC3 cells were cultured in HamF12+10% FBS and were seeded at 8,000 cells per well. COV644 cells were cultured in DMEM+2 mM glutamine+10% FBS and were seeded at 6,000 cells per well.
(§4) The cells were manipulated in a Microzone laminar flow hood traditionally used for maintaining aseptic environments around automated instrumentation such as microplate robots, and the like. Cells were grown and maintained at 37° C. in a humidified atmosphere containing 5% CO2 in a water jacketed cell culture incubator (Forma Scientific). Cells were counted using a ViCell counter (Beckman-Coulter). An automated plate washer/stacker (ELx405/BioStak from BioTek Instruments) and a microplate reader (SpectraMax Plus from Molecular Devices) were used for conducting the SRB assay and determining A570 values for wells in the plates and the percentage of control values. Prior to SRB assays, cell viability was monitored by evaluation of microtiter plate wells. Dead cells detach and float while living cells remain attached to the bottom of the cell well.
(§5) SN-38 (Irinotecan; Sigma H0165, lot MKBQ4981) and Topotecan (Sigma T2705, lot 052M4728V) were purchased from SigmaAldrich. BNP1350 (lot KN-C192-135) and BNP7787 (lot 205001) were synthesized at BioNumerik Pharmaceuticals, Inc. (San Antonio, Tex.). BNP1350, SN38, and Topotecan were prepared as 2.5, 2.5, and 25 mM stocks in DMSO (ATCC, cell culture grade).
(§6) The sulforhodamine B (SRB) cytotoxicity assay was used to assess cell survival. Briefly, after the medium was decanted from individual plate wells, trichloroacetic acid (100 μL of 10.0 percent solution) was added to each well, and the plates were incubated at 4° C. for 1 hour. The plates were washed five times with water using an automated microplate washer (Model ELx405, Bio-Tek Instruments), SRB solution (100 μL of 0.4% SRB dissolved in 1.0 percent acetic acid) was added, and plates remained at room temperature for 15 minutes. The plates were then washed five times using acetic acid (1.0 percent), air dried, and bound dye was solubilized in Tris base (150 μL, 10 mM). Plates were agitated (gently) for 5 minutes and the absorbance values of the SRB dye-protein adduct at 570 nanometers (A570) were determined using an automated microtiter plate reader (SpectraMax Plus, Molecular Devices). IC50 values were extrapolated from dose response curves of the data using OriginLab Software.
(§7) The 1050 values exceeded the solubility in medium for each compound—the limit of solubility in cell culture medium for the compounds were as follows: 2 micromolar for BNP1350 and SN38, and 20 micromolar for Topotecan. Cells were treated for periods of 2.5 hours or 6 hours and, in each case, the […] values were not reached. Longer treatments were not performed.

[7] = Limit of solubility in cell culture medium; format: physicochemical
Description: as §7

[8] = tested on: OMC3 Cell Line; assay: SRB cytotoxicity assay, OMC3; format: cell-based, human
Description: as §1, §3, §4, §5, §6

[9] = tested on: JHOM2B Cell Line; assay: SRB cytotoxicity assay, JHOM2B; format: cell-based, human
Description: as §1, §3, §4, §5, §6

[10] = 2 hour drug exposure, read-out: IC50, Test 1 (2 replicate plates)
[11] = 2 hour drug exposure, read-out: IC50, Test 2 (3 replicate plates)

Which “Resistance of MDR-expressing sublines relative to parental wild-type cells” value [1] does the source give for `CC[C@@]1(O)C(=O)OCc2c1cc1n(c2=O)Cc2cc3c(N)cccc3nc2-1` [9-aminocamptothecin, 9-amino-camptothecin] here?
Its value is “two-fold more resistant”.

For `CC[C@@]1(O)C(=O)OCc2c1cc1n(c2=O)Cc2cc3cc4c(cc3nc2-1)OCO4` [10,11-methylenedioxycamptothecin], which “Resistance of MDR-expressing sublines relative to parental wild-type cells” value [1] is on record?
Its value is “No increase in resistance”.

For `O=S(=O)([O-])CCSSCCS(=O)(=O)[O-].[Na+].[Na+]` [BNP7787, 2,2′-dithio-bis-ethane sulfonate], which “Effect on BNP1350-induced cytotoxicity” value ([2]; BNP7787 1 or 10 mM added simultaneously with approximate IC50 and IC25 values of BNP1350, each cell line) is on record?
The value was “no notable effect”.

What about the “Effect on cell survival as single agent” value ([2]; BNP7787 alone, 1 and 10 mM) of the same compound?
The value was “did not affect cell survival”.

And the “Interference with paclitaxel induced apoptosis” value [3]?
Its value is “does not interfere”.

What about the “Interference with paclitaxel- and platinum-induced cytotoxicity” value [4] of the same compound?
Its value is “not to interfere”.

Which Subjects with neutropenia [5] does the source give for `Nc1ccn([C@@H]2O[C@H](CO)[C@@H](O)C2(F)F)c(=O)n1` [Gemcitabine] here?
The Subjects with neutropenia was “up to 90%”.

Which IC50 ([6]; did not reach 50% of Control, read-out: IC50, Test 1 (2 replicate plates)) does the source give for `CCc1c2c(nc3ccc(O)cc13)-c1cc3c(c(=O)n1C2)COC(=O)[C@]3(O)CC` [SN38] here?
Its IC50 is > 2000 nM.

What about the IC50 ([6]; did not reach 50% of Control, read-out: IC50, Test 2 (2 to 3 replicate plates)) of the same compound?
Its IC50 is > 2000 nM.

What about the IC50 ([6]; read-out: IC50, Average) of the same compound?
The IC50 was > 2000 nM.

What about the “Limit of solubility in cell culture medium” value [7] of the same compound?
Its value is 2 µM.

What about the IC50 [8, 10] of the same compound?
Its IC50 is 550 ± 60 nM.

And the IC50 [8, 11]?
The IC50 was 580 ± 127 nM.

And the IC50 ([8]; read-out: IC50 values)?
The IC50 was 565 nM.

And the IC50 ([9]; 2 hour drug exposure, average of Test 1 and Test 2, read-out: IC50, Average)?
The IC50 was 666 nM.

And the IC50 [9, 10]?
Its IC50 is 610 ± 130 nM.

And the IC50 [9, 11]?
The IC50 was 723 ± 28 nM.

And the IC50 ([9]; read-out: IC50 values)?
Its IC50 is 667 nM.
